This passage reports EC50 results from US11180483B2, “Substituted reverse pyrimidine Bmi-1 inhibitors” (PTC Therapeutics, Inc., priority 2012, dated 2021).

This experiment has as its system Bmi-1. Description: Sandwich ELISA Assay (Bmi-1 ELISA) in HT-1080 cells. The class given is cell-based. On the procedure: Cell Seeding and Compound Treatment (Day 1):
HT-1080 cells were seeded at 8000 cells/well (50 μL) in 96-well tissue culture plates. After the cells became adherent (3-4 hours), 2× diluted stocks of test compounds in 50 μL DMEM containing 1% DMSO (final DMSO concentration was 0.5%) were added and the plates were incubated at 37° C. under 5% CO2 for 40-48 hours.
ELISA Plate First Antibody Preparation (Day 2):
The First Antibody (Millipore Mouse, monoclonal to mouse Bmi-1, clone F6, catalog #05-637) diluted to 2 μg/mL in PBS was added (100 μL) to each well of a Nunc MaxiSorp 96-well ELISA plate. The plate was covered with a plate seal and allowed to stand overnight.
Cell Lysate Preparation (Day 3):
Fresh 1× Lysis buffer was prepared on the day of the assay as follows: 1 mM EDTA, 150 mM NaCl, 0.5% Triton-X 100, 10 mM NaF, 20 mM B-Glycerophosphate, 1 mM DTT (in PBS, pH 7.2-7.4) and 1× HALT protease inhibitor cocktail (Pierce #78410).
The 1× Lysis Buffer (40 μL) was added to each well and the plate was shaken for 5-10 minutes on an orbital shaker to allow cell lysis, then diluent (1% BSA in PBS in 0.5% NP40) (100 μL) was added to each well.
A standard curve was prepared at the following Bmi-1 concentrations: 8000, 4000, 2000, 1000, 500, 250, 125, 0 pg/mL The Bmi-1 Recombinant Protein Standard (Novus Biologicals PCGF4 Recombinant Protein (P01), catalog #H00000648-P01) used to prepare the standard curve was stored at −80° C. On first thaw, the Bmi-1 Recombinant Protein Standard was diluted to […] in Blocking Buffer (1% BSA in PBS; BSA: Fisher Scientific Catalog #1600-100). Aliquots were taken and refrozen at −80° C. The aliquots may be kept at 4° C. and reused after first thaw, but only within 1-2 weeks. The Bmi-1 Recombinant Protein Standard contains a GST-fusion tag that appears around 70 Kda on Western Blot.
The prepared ELISA plate was washed 3× with Wash Buffer (0.05% Tween-20 in PBS). The final wash was removed from the plate and the plate was blotted dry. Blocking Buffer (300 μL) (1% BSA in PBS) was added to each well. The plate was covered with a plate seal and incubated at room temperature for 1 hour. The blocked plate was washed 3× with Wash Buffer, then the final wash was removed and the plate was blotted dry. The previously prepared samples and standards were added (100 μL/well) and the plate was covered with a plate seal and incubated at 4° C. overnight.
The prepared ELISA plate was removed from 4° C., incubated at room temperature for 30 minutes, then washed and blotted dry as previously described for Day 3. The Second Antibody (Cell Signaling Rabbit anti-Bmi-1, Cat #2830) diluted to 1:600 in Blocking Buffer was added (100 μL) to each well, except as needed for background control wells. The plate was covered with a plate seal and incubated for 1.5 hrs at room temperature.
The ELISA plate was washed and blotted dry as previously described. The Third Antibody (Cell Signaling HRP conjugated anti-rabbit IgG (CellSignaling, Cat #:7074) diluted to 1:300 in Blocking Buffer was added (100 μL) to each well, except as needed for background control wells. The plate was incubated for 1 hr at room temperature.
The plate was washed and blotted dry as previously described, then prepared TMB substrate (TMB substrate kit, Pierce catalog #34021) (prepared by mixing kit reagents 1:1) (100 μL) was added per well. The plate was incubated for 20-30 minutes at room temperature in the dark, then Stop Solution (2 M sulfuric acid in water) (50 μL) was added per well. The plates were read at OD450 (experimental) and OD570 (reference).
`Cc1nc2ccc(F)cc2n1-c1nc(N)c(F)c(Nc2ccc(OC(F)F)cc2)n1` [Cpd 110, N-[4-(difluoromethoxy)phenyl]-5-fluoro-2-(6-fluoro-2-methyl-1H-benzimidazol-1-yl)pyrimidine-4,6-diamine] came in with an EC50 of 0.01 to 0.1 µM.

`CC1(c2nc3ccccc3n2-c2nc(N)cc(Nc3ccc(C(F)(F)F)cc3)n2)CC1` [Cpd 147, 2-[2-(1-methylcyclopropyl)-1H-benzimidazol-1-yl]-N-[4-(trifluoromethyl]phenyl]pyrimidine-4,6-diamine] displayed an EC50 of 0.1 to 3 µM.

Turning to `Cc1nc2ccc(F)cc2n1-c1nc(N)c(F)c(Nc2ccc(Cl)cc2)n1` [Cpd 185, N-(4-chlorophenyl)-5-fluoro-2-(6-fluoro-2-methyl-1H-benzimidazol-1-yl)pyrimidine-4,6-diamine], the concentration for a half-maximal effect (EC50) is 0.01 to 0.1 µM.

In turn, `Cc1nc2cc(F)ccc2n1-c1nc(N)c(F)c(Nc2ccc(C(F)(F)F)cc2)n1` [Cpd 108, 5-fluoro-2-(5-fluoro-2-methyl-1H-benzimidazol-1-yl)-N-[4-(trifluoromethyl)phenyl]pyrimidine-4,6-diamine] displayed an EC50 of 0.1 to 3 µM.

On to `FC(F)(F)Oc1ccc(Nc2ccnc(-c3c(C(F)(F)F)nc4ccc(Cl)cn34)n2)cc1` [Cpd 14, 2-[6-chloro-2-(trifluoromethyl)imidazo[1,2-a]pyridin-3-yl]-N-[4-(trifluoromethoxy)phenyl]pyrimidin-4-amine], for which the half-maximal effective concentration (EC50) lay in the range of 0.1 to 3 µM.

The compound `Cc1ccc(Nc2nc(-c3c(C(F)(F)F)nc4ccccn34)ncc2Cl)cc1` [Cpd 44, 5-chloro-N-(4-methylphenyl)-2-[2-(trifluoromethyl)imidazo[1,2-a]pyridin-3-yl]pyrimidin-4-amine] had an EC50 of 0.1 to 3 µM.

The compound `Nc1nc(-n2c(C3CC3)nc3ccccc32)nc(Nc2ccc(Cl)c(F)c2)c1F` [Cpd 280, N-(4-chloro-3-fluorophenyl)-2-(2-cyclopropyl-1H-benzimidazol-1-yl)-5-fluoropyrimidine-4,6-diamine] came in with an EC50 of 0.01 to 0.1 µM.

Take `CCc1ccc2nc(C)n(-c3nc(N)cc(Nc4ccc(C(F)(F)F)cc4)n3)c2c1` [Cpd 87, 2-(6-ethyl-2-methyl-1H-benzimidazol-1-yl)-N-[4-(trifluoromethyl)phenyl]pyrimidine-4,6-diamine]: the EC50 fell in the range of 0.1 to 3 µM.

Consider `Cc1nc2ccc(Cl)cc2n1-c1nc(N)c(F)c(Nc2ccc(C(F)(F)F)cc2)n1` [Cpd 160, 2-(6-chloro-2-methyl-1H-benzimidazol-1-yl)-5-fluoro-N-[4-(trifluoromethyl)phenyl]pyrimidine-4,6-diamine], for which the EC50 was 0.01 to 0.1 µM.

In turn, `Cc1nc2ncccc2n1-c1nc(N)c(F)c(Nc2ccc(OC(F)F)cc2)n1` [Cpd 138, N-[4-(difluoromethoxy)phenyl]-5-fluoro-2-(2-methyl-1H-imidazo[4,5-b]pyridin-1-yl)pyrimidine-4,6-diamine] came in with an EC50 of 0.01 to 0.1 µM.

Consider `Cc1nc2c(F)cc(F)cc2n1-c1nc(NCCO)cc(Nc2ccc(C(F)(F)F)cc2)n1` [Cpd 90, 2-{[2-(4,6-difluoro-2-methyl-1H-benzimidazol-1-yl)-6-{[4-(trifluoromethyl)phenyl]amino}pyrimidin-4-yl]amino}ethanol], for which the EC50 was 0.1 to 3 µM.

Compound `Cc1nc2ccccc2n1-c1nc(N)cc(Nc2ccc(OC(F)(F)F)cc2)n1` [Cpd 221, 2-(2-methyl-1H-benzimidazol-1-yl)-N-[4-(trifluoromethoxy)phenyl]pyrimidine-4,6-diamine] showed an EC50 of 0.1 to 3 µM.

As for `COc1ccc(Nc2ccnc(-c3c(C(F)(F)F)nc4ccccn34)n2)cc1F` [Cpd 34, N-(3-fluoro-4-methoxyphenyl)-2-[2-(trifluoromethyl)imidazo[1,2-a]pyridin-3-yl]pyrimidin-4-amine], the EC50 fell in the range of 0.001 to 0.01 µM.

In turn, `CCc1nc2ccccc2n1-c1nc(N)c(F)c(Nc2ccc(Cl)cc2)n1` [Cpd 274, N-(4-chlorophenyl)-2-(2-ethyl-1H-benzimidazol-1-yl)-5-fluoropyrimidine-4,6-diamine] came in with an EC50 of 0.01 to 0.1 µM.

`Cc1nc2ccccc2n1-c1nc(NCCO)cc(Nc2ccc(C(F)(F)F)cc2)n1` [Cpd 57, 2-{[2-(2-methyl-1H-benzimidazol-1-yl)-6-{[4-(trifluoromethyl)phenyl]amino}pyrimidin-4-yl]amino}ethanol] gave an EC50 of 0.1 to 3 µM.

Consider `Cc1nc2ccccn2c1-c1nc(N)c(F)c(Nc2ccc(C(F)(F)F)cc2)n1` [Cpd 169, 5-fluoro-2-(2-methylimidazo[1,2-a]pyridin-3-yl)-N-[4-(trifluoromethyl)phenyl]pyrimidine-4,6-diamine], for which the EC50 was in the range of 0.1 to 3 µM.

For the compound `COc1ccc(Nc2ccnc(-n3c(C)nc4ccccc43)n2)cc1` [Cpd 1, N-(4-methoxyphenyl)-2-(2-methyl-1H-benzimidazol-1-yl)pyrimidin-4-amine], the EC50 lay within 0.01 to 0.1 µM.

In turn, `Cc1nc2cc(C#N)ccc2n1-c1nc(N)c(F)c(Nc2ccc(OC(F)F)cc2)n1` [Cpd 226, 1-(4-amino-6-{[4-(difluoromethoxy)phenyl]amino}-5-fluoropyrimidin-2-yl)-2-methyl-1H-benzimidazole-5-carbonitrile] returned an EC50 of 0.1 to 3 µM.

The compound `COc1ccc(Nc2nc(-n3c(C)nc4ccc([N+](=O)[O-])cc43)nc(N)c2F)cc1` [Cpd 233, 5-fluoro-N-(4-methoxyphenyl)-2-(2-methyl-6-nitro-1H-benzimidazol-1-yl)pyrimidine-4,6-diamine] returned an EC50 of 0.01 to 0.1 µM.

For the compound `Cc1nc2ccc(Cl)cc2n1-c1nc(N)c(F)c(Nc2ccc(OC(F)F)cc2)n1` [Cpd 161, 2-(6-chloro-2-methyl-1H-benzimidazol-1-yl)-N-[4-(difluoromethoxy)phenyl]-5-fluoropyrimidine-4,6-diamine], the EC50 is 0.01 to 0.1 µM.

For the compound `COc1ccc(Nc2ccnc(-c3c(C(F)(F)F)nc4ccc(Br)cn34)n2)cc1` [Cpd 33, 2-[6-bromo-2-(trifluoromethyl)imidazo[1,2-a]pyridin-3-yl]-N-(4-methoxyphenyl)pyrimidin-4-amine], the EC50 was in the range of 0.01 to 0.1 µM.

The compound `Cc1ccc(Nc2ccnc(-c3c(C(F)(F)F)nc4ccc(F)cn34)n2)cc1` [Cpd 21, 2-[6-fluoro-2-(trifluoromethyl)imidazo[1,2-a]pyridin-3-yl]-N-(4-methylphenyl)pyrimidin-4-amine] registered an EC50 of 0.001 to 0.01 µM.

Regarding `COCc1nc2ccccc2n1-c1nc(N)c(F)c(Nc2ccc(OC)cc2)n1` [Cpd 218, 5-fluoro-2-[2-(methoxymethyl)-1H-benzimidazol-1-yl]-N-(4-methoxyphenyl)pyrimidine-4,6-diamine], the concentration giving a half-maximal response (EC50) is 0.001 to 0.01 µM.

In the case of `COCCNc1cc(Nc2ccc(OC(F)F)cc2)nc(-n2c(C)nc3ccccc32)n1` [Cpd 59, N^4-[4-(difluoromethoxy)phenyl]-N^6-(2-methoxyethyl)-2-(2-methyl-1H-benzimidazol-1-yl)pyrimidine-4,6-diamine], the EC50 fell in the range of 0.1 to 3 µM.

Turning to `COc1ccc2nc(C)n(-c3nc(N)c(F)c(Nc4ccc(C(F)(F)F)cc4)n3)c2c1` [Cpd 244, 5-fluoro-2-(6-methoxy-2-methyl-1H-benzimidazol-1-yl)-N-[4-(trifluoromethyl)phenyl]pyrimidine-4,6-diamine], the EC50 was 0.01 to 0.1 µM.

`Cc1ccc(Nc2nc(-n3c(C)nc4cc(F)c(F)cc43)nc(N)c2F)cc1` [Cpd 213, 2-(5,6-difluoro-2-methyl-1H-benzimidazol-1-yl)-5-fluoro-N-(4-methylphenyl)pyrimidine-4,6-diamine] had an EC50 of 0.001 to 0.01 µM.

For `Cc1nc2ccccn2c1-c1nccc(Nc2ccc(C(F)(F)F)cc2)n1` [Cpd 3, 2-(2-methylimidazo[1,2-a]pyridin-3-yl)-N-[4-(trifluoromethyl)phenyl]pyrimidin-4-amine], the EC50 lay in the range of 0.01 to 0.1 µM.

On to `COc1ccc2nc(C)n(-c3nc(N)c(F)c(Nc4ccc(C)cc4)n3)c2c1` [Cpd 248, 5-fluoro-2-(6-methoxy-2-methyl-1H-benzimidazol-1-yl)-N-(4-methylphenyl)pyrimidine-4,6-diamine], for which the EC50 fell in the range of 0.01 to 0.1 µM.
